≈ marks a conversion by molar mass, not a printed value.
How the values were obtained:
Assay in all cases: Broth microdilution MIC in CAMHB
Assay type in all cases: cell-based
A. baumannii ATCC 19606 = details: Acinetobacter baumannii, ATCC19606; MHB; read-out: Minimum Inhibitory Concentration, A. baumannii ATCC 19606
Procedure, shortened: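 CLSI broth microdilution in CAMHB: 2-fold compound dilutions inoculated at 2-8×10^5 CFU/mL from 3-5 h log-phase cultures. Incubated at 37 °C for 16-20 h (Enterobacteriaceae, Pseudomonas); MIC read visually as lowest concentration without growth. Strains include hyper-permeable and efflux-deficient mutants.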

E. coli 901C = details: Escherichia coli; E. coli 901C (hyper-permeable); MHB; read-out: Minimum Inhibitory Concentration, E. coli 901C
Procedure, shortened: (§1)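 Colonies from cation-adjusted Mueller Hinton agar are grown in broth (3-5 h, 37° C), adjusted by OD600, and added at 2-8×10^5 CFU/mL to 2-fold compound dilutions. After 16-20 h at 37° C, the lowest concentration without growth is taken as MIC.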

E. coli D22 = details: Escherichia coli; E. coli D22 (hyper-permeable); MHB; read-out: Minimum Inhibitory Concentration, E. coli D22
Procedure, shortened: as §1

E. coli AG100 = details: Escherichia coli; E. coli AG100 (wild-type parent); MHB; read-out: Minimum Inhibitory Concentration, E. coli AG100
Procedure, shortened: as §1

[1] = system: P. aeruginosa (ΔmexAB-oprM); details: Pseudomonas aeruginosa, read-out: Minimum Inhibitory Concentration, P. aeruginosa ΔmexAB-OprM
Procedure, shortened: as §1

E. coli ATCC 25922 = details: Escherichia coli, ATCC25922; E. coli ATCC 25922; MHB; read-out: Minimum Inhibitory Concentration, E. coli 25922
Procedure, shortened: as §1

[2] = system: K. pneumoniae 848844 producing SHV-11 and KPC-2; details: Klebsiella pneumoniae, read-out: Minimum Inhibitory Concentration, K. pneumoniae 848844
Procedure, shortened: as §1

[3] = system: K. pneumoniae SI-117 producing VIM-1; details: Klebsiella pneumoniae, read-out: Minimum Inhibitory Concentration, K. pneumoniae SI-117
Procedure, shortened: as §1

P. aeruginosa ATCC 27853 = details: Pseudomonas aeruginosa, ATCC27853; MHB; read-out: Minimum Inhibitory Concentration, P. aeruginosa ATCC 27853
Procedure, shortened: as §1

E. coli AG100A = details: Escherichia coli, read-out: Minimum Inhibitory Concentration, E. coli AG100A
Procedure, shortened: as §1

[4] = system: K. pneumoniae UMM producing SHV-5 and KPC-2; details: Klebsiella pneumoniae, read-out: Minimum Inhibitory Concentration, K. pneumoniae UMM
Procedure, shortened: as §1

P. aeruginosa ATCC 35151 = details: Pseudomonas aeruginosa, ATCC35151; MHB; hyper-permeable strain; read-out: Minimum Inhibitory Concentration, P. aeruginosa ATCC 35151
Procedure, shortened: as §1

Row | Structure (SMILES) | MIC (A. baumannii ATCC 19606) [µg/mL] | MIC (E. coli 901C) [µg/mL] | MIC (E. coli D22) [µg/mL] | MIC (E. coli AG100) [µg/mL] | MIC [1] [µg/mL] | MIC (E. coli ATCC 25922) [µg/mL] | MIC [2] [µg/mL] | MIC [3] [µg/mL] | MIC (P. aeruginosa ATCC 27853) [µg/mL] | MIC (E. coli AG100A) [µg/mL] | MIC [4] [µg/mL] | MIC (P. aeruginosa ATCC 35151) [µg/mL]
1 | NCCN1CCN(C(=O)NC(C(=O)N[C@H]2Cc3cccc(C(=O)O)c3OB2O)c2ccc(C(=O)O)cc2O)C(=O)C1=O (stereo partly drawn) [Example 142, (3R)-3-(2-(4-(2-aminoethyl)-2,3-dioxopiperazine-1-carboxamido)-2-(4-carboxy-2-hydroxyphenyl)acetamido)-2-hydroxy-3,4-dihydro-2H-benzo[e][1,2]oxaborinine-8-carboxylic acid] | > 128 | 2 to 4 (≈ 3.43 to 6.86 µM) | 8 to 16 (≈ 13.7 to 27.4 µM) | 32 to 64 (≈ 54.9 to 110 µM) | > 128 | > 128 | > 128 | > 128 | > 128 | 32 to 64 (≈ 54.9 to 110 µM) | 32 to 64 (≈ 54.9 to 110 µM) | 2 to 4 (≈ 3.43 to 6.86 µM)
2 | CCN1CCN(C(=O)N[C@@H](C(=O)N[C@H]2Cc3cccc(C(=O)O)c3OB2O)c2ccc(C(=O)O)cc2Cl)C(=O)C1=O (single isomer, unassigned) [Example 151] | > 128 | < 0.25 | 2 to 4 (≈ 3.41 to 6.82 µM) | 32 to 64 (≈ 54.5 to 109 µM) | 8 to 16 (≈ 13.6 to 27.3 µM) | > 128 | > 128 | > 128 | > 128 | 8 to 16 (≈ 13.6 to 27.3 µM) | > 128 | 0.5 to 1 (≈ 0.852 to 1.7 µM)
3 | CCN1CCN(C(=O)N[C@H](C(=O)N[C@H]2Cc3cccc(C(=O)O)c3OB2O)c2ccc(C(=O)O)c(Cl)c2)C(=O)C1=O (single isomer, unassigned) [Example 155] | > 128 | < 0.25 | 2 to 4 (≈ 3.41 to 6.82 µM) | 32 to 64 (≈ 54.5 to 109 µM) | 8 to 16 (≈ 13.6 to 27.3 µM) | > 128 | > 128 | > 128 | > 128 | 8 to 16 (≈ 13.6 to 27.3 µM) | > 128 | 0.5 to 1 (≈ 0.852 to 1.7 µM)
4 | NCCN1CCN(C(=O)N[C@@H](C(=O)N[C@H]2Cc3cccc(C(=O)O)c3OB2O)c2cc(Cl)c(O)c(Cl)c2)C(=O)C1=O (single isomer, unassigned) [Example 166] | > 128 | < 0.25 | 2 to 4 (≈ 3.29 to 6.58 µM) | 8 to 16 (≈ 13.2 to 26.3 µM) | 2 to 4 (≈ 3.29 to 6.58 µM) | 8 to 16 (≈ 13.2 to 26.3 µM) | 32 to 64 (≈ 52.6 to 105 µM) | 32 to 64 (≈ 52.6 to 105 µM) | 8 to 16 (≈ 13.2 to 26.3 µM) | 0.5 to 1 (≈ 0.822 to 1.64 µM) | 32 to 64 (≈ 52.6 to 105 µM) | < 0.25
5 | CCN1CCN(C(=O)NC(C(=O)N[C@H]2Cc3cccc(C(=O)O)c3OB2O)c2cc(F)c(C(=O)O)cc2F)C(=O)C1=O (stereo partly drawn) [Example 137, (3R)-3-(2-(4-carboxy-2,5-difluorophenyl)-2-(4-ethyl-2,3-dioxopiperazine-1-carboxamido)acetamido)-2-hydroxy-3,4-dihydro-2H-benzo[e][1,2]oxaborinine-8-carboxylic acid] | > 128 | < 0.25 | 8 to 16 (≈ 13.6 to 27.2 µM) | 32 to 64 (≈ 54.4 to 109 µM) | 8 to 16 (≈ 13.6 to 27.2 µM) | 32 to 64 (≈ 54.4 to 109 µM) | > 128 | > 128 | > 128 | 8 to 16 (≈ 13.6 to 27.2 µM) | 32 to 64 (≈ 54.4 to 109 µM) | 0.5 to 1 (≈ 0.85 to 1.7 µM)
6 | NCCN1CCN(C(=O)N[C@@H](C(=O)N[C@H]2Cc3cccc(C(=O)O)c3OB2O)c2cccc(NS(N)(=O)=O)c2)C(=O)C1=O (single isomer, unassigned) [Example 114] | > 128 | 2 to 4 (≈ 3.24 to 6.48 µM) | 8 to 16 (≈ 13 to 25.9 µM) | 32 to 64 (≈ 51.8 to 104 µM) | 2 to 4 (≈ 3.24 to 6.48 µM) | 32 to 64 (≈ 51.8 to 104 µM) | 32 to 64 (≈ 51.8 to 104 µM) | 32 to 64 (≈ 51.8 to 104 µM) | > 128 | 2 to 4 (≈ 3.24 to 6.48 µM) | 32 to 64 (≈ 51.8 to 104 µM) | 0.5 to 1 (≈ 0.81 to 1.62 µM)
7 | CCN1CCN(C(=O)NC(C(=O)N[C@H]2Cc3cccc(C(=O)O)c3OB2O)c2cc(F)c(O)c(F)c2)C(=O)C1=O (stereo partly drawn) [Example 160, (3R)-3-(2-(3,5-difluoro-4-hydroxyphenyl)-2-(4-ethyl-2,3-dioxopiperazine-1-carboxamido)acetamido)-2-hydroxy-3,4-dihydro-2H-benzo[e][1,2]oxaborinine-8-carboxylic acid] | > 128 | < 0.25 | 2 to 4 (≈ 3.57 to 7.14 µM) | 32 to 64 (≈ 57.1 to 114 µM) | 2 to 4 (≈ 3.57 to 7.14 µM) | 32 to 64 (≈ 57.1 to 114 µM) | 32 to 64 (≈ 57.1 to 114 µM) | > 128 | > 128 | 2 to 4 (≈ 3.57 to 7.14 µM) | 32 to 64 (≈ 57.1 to 114 µM) | < 0.25
